Experimental findings from patent US8623859B2, “Bradykinin B1 antagonists” (Evotec AG, priority 2008, dated 2014) are described below.

The experiment deals with T1, human B1 (Homo sapiens, UniProt P46663).
T1 construct: host or cells: CHO-K1
T1 sequence (P46663 1-353): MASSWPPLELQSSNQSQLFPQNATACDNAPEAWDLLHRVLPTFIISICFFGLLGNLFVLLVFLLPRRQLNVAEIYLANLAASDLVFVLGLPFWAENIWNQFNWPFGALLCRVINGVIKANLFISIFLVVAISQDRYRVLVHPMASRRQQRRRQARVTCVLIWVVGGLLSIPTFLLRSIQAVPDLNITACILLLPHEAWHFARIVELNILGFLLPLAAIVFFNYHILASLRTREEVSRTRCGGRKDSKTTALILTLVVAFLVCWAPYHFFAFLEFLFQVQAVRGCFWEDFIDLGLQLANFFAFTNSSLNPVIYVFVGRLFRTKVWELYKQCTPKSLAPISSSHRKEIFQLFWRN
The experiment is described as follows: Calcium flux assay for Bradykinin B1 antagonist, CHO-K1 cell line expressing human B1. It counts as cell-based. Particulars: CHO-K1 cells expressing human B1, agonist Lys-(Des-Arg)-Bradykinin, read-out: Potency (IC50 value against human B1). In short, it runs like this:
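Inhibition of B1 agonist-evoked intracellular Ca2+ rise was followed by continuous fluorescence at 538 nm, with integrated, background-normalized signals plotted versus log compound concentration. Test compounds (eight 10-fold dilutions, triplicate, 1% DMSO final) were added 30 min at 25° C beforehand to Fluo-4AM-loaded human B1 CHO-K1 cells in pH 7.4 assay buffer.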
On the technique in general: A change in cytosolic calcium serves as a functional read-out for many receptors and channels.

Counter-ions that a name gives are not always drawn. Where only a bound is given, the exact number is not on record here.

A word on the IC50: it is the concentration needed to halve the response being measured.

For `COc1cc(C)c(S(=O)(=O)N(Cc2nc(C(=O)N3CCN(CCCN4CCCC4)CC3)co2)C2CC2)c(C)c1` [Ex 197, N-Cyclopropyl-4-methoxy-2,6-dimethyl-N-[(4-{[4-(3-pyrrolidin-1-ylpropyl)piperazin-1-yl]carbonyl}-1,3-oxazol-2-yl)methyl]benzenesulfonamide trifluoroacetate], the IC50 was less than 0.01 µM.

For the compound `COc1cc(C)c(S(=O)(=O)N(Cc2nc(C(=O)N(C)Cc3ccc(CN4CCC(C)(O)C4)cc3)co2)C2CC2)c(C)c1` (stereo not shown) [Ex 198, 2-({Cyclopropyl[(4-methoxy-2,6-dimethylphenyl)sulfonyl]amino}methyl)-N-{4-[(3-hydroxy-3-methylpyrrolidin-1-yl)methyl]benzyl}-N-methyl-1,3-oxazole-4-carboxamide], the half-maximal inhibitory concentration (IC50) is less than 0.01 µM.

Turning to `COc1cc(C)c(S(=O)(=O)N(Cc2nc(C(=O)N(C)Cc3nnc(CN4CCCC4)s3)co2)C2CC2)c(C)c1` [Ex 199, 2-({Cyclopropyl[(4-methoxy-2,6-dimethylphenyl)sulfonyl]amino}methyl)-N-methyl-N-{[5-(pyrrolidin-1-ylmethyl)-1,3,4-thiadiazol-2-yl]methyl}-1,3-oxazole-4-carboxamide trifluoroacetate], the IC50 is less than 0.01 µM.

For the compound `COc1cc(C)c(S(=O)(=O)N(Cc2nc(C(=O)N(C)Cc3nc(CN4CCCC4)cs3)co2)C2CC2)c(C)c1` [Ex 200, 2-({Cyclopropyl[(4-methoxy-2,6-dimethylphenyl)sulfonyl]amino}methyl)-N-methyl-N-{[4-(pyrrolidin-1-ylmethyl)-1,3-thiazol-2-yl]methyl}-1,3-oxazole-4-carboxamide trifluoroacetate], the IC50 is less than 0.01 µM.

As to `COc1cc(C)c(S(=O)(=O)N(C)Cc2nc(C(=O)N(C)Cc3nnc(CN4CCCC4)s3)co2)c(C)c1` [Ex 201, 2-({[(4-Methoxy-2,6-dimethylphenyl)sulfonyl](methyl)amino}methyl)-N-methyl-N-{[5-(pyrrolidin-1-ylmethyl)-1,3,4-thiadiazol-2-yl]methyl}-1,3-oxazole-4-carboxamide trifluoroacetate], the IC50 lay in the range of 0.1 to 1 µM.

In the case of `COc1cc(C)c(S(=O)(=O)N(C)Cc2nc(C(=O)N(C)Cc3nc(CN4CCCC4)cs3)co2)c(C)c1` [Ex 202, 2-({[(4-Methoxy-2,6-dimethylphenyl)sulfonyl](methyl)amino}methyl)-N-methyl-N-{[4-(pyrrolidin-1-ylmethyl)-1,3-thiazol-2-yl]methyl}-1,3-oxazole-4-carboxamide trifluoroacetate], the IC50 is 0.01 to 0.1 µM.

For the compound `COc1cc(C)c(S(=O)(=O)N(Cc2nc(C(=O)N(C)Cc3ccc(CN4CCCC4)nc3)co2)C2CC2)c(C)c1` [Ex 203, 2-({Cyclopropyl[(4-methoxy-2,6-dimethylphenyl)sulfonyl]amino}methyl)-N-methyl-N-{[6-(pyrrolidin-1-ylmethyl)pyridin-3-yl]methyl}-1,3-oxazole-4-carboxamide], the IC50 is less than 0.01 µM.

In the case of `COc1cc(C)c(S(=O)(=O)N(Cc2nc(C(=O)N3CCN(CCCCN(C)C)CC3)co2)C2CC2)c(C)c1` [Ex 204, N-Cyclopropyl-N-{[4-({4-[4-(dimethylamino)butyl]piperazin-1-yl}carbonyl)-1,3-oxazol-2-yl]methyl}-4-methoxy-2,6-dimethylbenzenesulfonamide trifluoroacetate], the half-inhibitory concentration (IC50) is less than 0.01 µM.

Consider `COc1cc(C)c(S(=O)(=O)N(Cc2nc(C(=O)N3CC4CCNCC4C3)co2)C2CC2)c(C)c1` (stereo not shown) [Ex 205, N-Cyclopropyl-4-methoxy-2,6-dimethyl-N-{[4-(octahydro-2H-pyrrolo[3,4-c]pyridin-2-ylcarbonyl)-1,3-oxazol-2-yl]methyl}benzenesulfonamide], for which the IC50 lay within 0.1 to 1 µM.

With `COc1cc(C)c(S(=O)(=O)N(Cc2nc(C(=O)N3CC4CCN(C5CCN(C)CC5)CC4C3)co2)C2CC2)c(C)c1` (stereo not shown) [Ex 206, N-Cyclopropyl-4-methoxy-2,6-dimethyl-N-[(4-{[5-(1-methylpiperidin-4-yl)octahydro-2H-pyrrolo[3,4-c]pyridin-2-yl]carbonyl}-1,3-oxazol-2-yl)methyl]benzenesulfonamide trifluoroacetate], the concentration for half-maximal inhibition (IC50) was 0.1 to 1 µM.

Turning to `COc1cc(C)c(S(=O)(=O)N(Cc2nc(C(=O)N3CC4CCN(C5CN6CCC5CC6)CC4C3)co2)C2CC2)c(C)c1` (stereo not shown) [Ex 207, N-[(4-{[5-(1-Azabicyclo[2.2.2]oct-3-yl)octahydro-2H-pyrrolo[3,4-c]pyridin-2-yl]carbonyl}-1,3-oxazol-2-yl)methyl]-N-cyclopropyl-4-methoxy-2,6-dimethylbenzenesulfonamide trifluoroacetate], the IC50 is less than 0.01 µM.

Take `COc1cc(C)c(S(=O)(=O)N(Cc2nc(C(=O)N3CCC(N(C)C4CCN(C)CC4)C3)co2)C2CC2)c(C)c1` (stereo not shown) [Ex 208, N-Cyclopropyl-4-methoxy-2,6-dimethyl-N-{[4-({3-[methyl(1-methylpiperidin-4-yl)amino]pyrrolidin-1-yl}carbonyl)-1,3-oxazol-2-yl]methyl}benzenesulfonamide trifluoroacetate]: the IC50 lay within 0.1 to 1 µM.

Regarding `COc1cc(C)c(S(=O)(=O)N(Cc2nc(C(=O)N3CC4CN(Cc5ccc(OC)nc5)CC4C3)co2)C2CC2)c(C)c1` (stereo not shown) [Ex 209, N-Cyclopropyl-4-methoxy-N-{[4-({5-[(6-methoxypyridin-3-yl)methyl]hexahydropyrrolo[3,4-c]pyrrol-2(1H)-yl}carbonyl)-1,3-oxazol-2-yl]methyl}-2,6-dimethylbenzenesulfonamide trifluoroacetate], the concentration for half-maximal inhibition (IC50) was in the range of 0.1 to 1 µM.

As for `COc1cc(C)c(S(=O)(=O)N(Cc2nc(C(=O)N3CC4CCN(Cc5ccc(OC)nc5)CC4C3)co2)C2CC2)c(C)c1` (stereo not shown) [Ex 210, N-Cyclopropyl-4-methoxy-N-{[4-({5-[(6-methoxypyridin-3-yl)methyl]octahydro-2H-pyrrolo[3,4-c]pyridin-2-yl}carbonyl)-1,3-oxazol-2-yl]methyl}-2,6-dimethylbenzenesulfonamide trifluoroacetate], the IC50 is 0.01 to 0.1 µM.

As for `COc1cc(C)c(S(=O)(=O)N(Cc2nc(C(=O)N3CC4CCN(Cc5ccc(N6CCCC6)nc5)CC4C3)co2)C2CC2)c(C)c1` (stereo not shown) [Ex 211, N-Cyclopropyl-4-methoxy-2,6-dimethyl-N-{[4-({5-[(6-pyrrolidin-1-ylpyridin-3-yl)methyl]octahydro-2H-pyrrolo[3,4-c]pyridin-2-yl}carbonyl)-1,3-oxazol-2-yl]methyl}benzenesulfonamide trifluoroacetate], the IC50 was less than 0.01 µM.

`COc1cc(C)c(S(=O)(=O)N(Cc2nc(C(=O)N3CCC(N(C)Cc4ccc(OC)nc4)C3)co2)C2CC2)c(C)c1` (stereo not shown) [Ex 212, N-Cyclopropyl-4-methoxy-N-({4-[(3-{[(6-methoxypyridin-3-yl)methyl](methyl)amino}pyrrolidin-1-yl)carbonyl]-1,3-oxazol-2-yl}methyl)-2,6-dimethylbenzenesulfonamide trifluoroacetate]: the IC50 fell in the range of 0.1 to 1 µM.

For `CN(CCc1ccc(C2=NCCN2)cc1)C(=O)c1coc(CN(C2CC2)S(=O)(=O)c2c(Cl)cccc2Cl)n1` [Ex 213, 2-({Cyclopropyl[(2,6-dichlorophenyl)sulfonyl]amino}methyl)-N-{2-[4-(4,5-dihydro-1H-imidazol-2-yl)phenyl]ethyl}-N-methyl-1,3-oxazole-4-carboxamide trifluoroacetate], the IC50 was in the range of 0.1 to 1 µM.

As for `CN(CCc1ccc(C2=NCCN2)cc1)C(=O)c1coc(CN(C2CC2)S(=O)(=O)c2ccc(Cl)cc2Cl)n1` [Ex 214, 2-({Cyclopropyl[(2,4-dichlorophenyl)sulfonyl]amino}methyl)-N-{2-[4-(4,5-dihydro-1H-imidazol-2-yl)phenyl]ethyl}-N-methyl-1,3-oxazole-4-carboxamide trifluoroacetate], the IC50 lay within 0.1 to 1 µM.

For `CN(CCc1ccc(C2=NCCN2)cc1)C(=O)c1coc(CN(C2CC2)S(=O)(=O)c2c(Cl)cc(Cl)cc2Cl)n1` [Ex 215, 2-({Cyclopropyl[(2,4,6-trichlorophenyl)sulfonyl]amino}methyl)-N-{2-[4-(4,5-dihydro-1H-imidazol-2-yl)phenyl]ethyl}-N-methyl-1,3-oxazole-4-carboxamide trifluoroacetate], the IC50 lay within 0.01 to 0.1 µM.

For the compound `CN(Cc1ccc(CN2CCCC2)cc1)C(=O)c1coc(CN(C2CC2)S(=O)(=O)c2c(Cl)cc(Cl)cc2Cl)n1` [Ex 216, 2-({Cyclopropyl[(2,4,6-trichlorophenyl)sulfonyl]amino}methyl)-N-methyl-N-[4-(pyrrolidin-1-ylmethyl)benzyl]-1,3-oxazole-4-carboxamide trifluoroacetate], the IC50 was in the range of 0.1 to 1 µM.

For the compound `Cc1cc(S(=O)(=O)N(Cc2nc(C(=O)N(C)CCc3ccc(C4=NCCN4)cc3)co2)C2CC2)c(C)cc1Cl` [Ex 217, 2-({[(4-Chloro-2,5-dimethylphenyl)sulfonyl](cyclopropyl)amino}methyl)-N-{2-[4-(4,5-dihydro-1H-imidazol-2-yl)phenyl]ethyl}-N-methyl-1,3-oxazole-4-carboxamide trifluoroacetate], the concentration for half-maximal inhibition (IC50) is 0.1 to 1 µM.

Regarding `Cc1cc(S(=O)(=O)N(Cc2nc(C(=O)N(C)Cc3ccc(CN4CCCC4)cc3)co2)C2CC2)c(C)cc1Cl` [Ex 218, 2-({[(4-Chloro-2,5-dimethylphenyl)sulfonyl](cyclopropyl)amino}methyl)-N-methyl-N-[4-(pyrrolidin-1-ylmethyl)benzyl]-1,3-oxazole-4-carboxamide trifluoroacetate], the IC50 was in the range of 0.1 to 1 µM.
